Laboratory results: patent US10251852B2, “Composition and methods for treatment of lung disorders characterized by cholesterol dysregulation” (priority 2016, dated 2019)

Legend:
[1] = system: BMD macrophages from PAP mice (Csf2−/−); assay: In vitro mouse PPARγ & LXR stimulation, gene expression by qRT-PCR; format: cell-based; settings: T0901317 1 μm
Experimental: Tissue macrophage differentiation and culture. All cells were maintained in the culture medium of Dulbecco's modified eagle's medium (DMEM) (Life Technologies) plus 10% FBS, 50 U ml-1 penicillin, and 50 μg ml-1 streptomycin. Bone marrow cells were obtained from 6-8-week-old mice by flushing the tibias and femurs with the culture media described above.
Mononuclear cells were isolated by centrifugation over a Ficoll-Paque (GE Healthcare Life Sciences) gradient at room temperature for 30 minutes. The buffy coat was washed in PBS and the cellular pellet re-suspended in the culture medium with M-CSF (R&D Systems) (5 ng/ml) plus or minus GM-CSF (R&D Systems) as dictated per experimental requirements. Cells were cultured in a 10 cm dish overnight at 37° C. and the next day non-adherent cells were recovered and transferred to a new dish and cultured under the same conditions for an additional 24 hrs. At this stage non-adherent cells were discarded and adherent cells cultured for an additional five days to allow differentiation of bone marrow derived (BMD) macrophages. Peritoneal macrophages were isolated from the peritoneal without chemical solicitation by washing with 8 ml of PBS plus 0.5 mM EDTA. WT peritoneal macrophages were cultured in vitro in culture medium with M-CSF (5 ng/ml) and GM-CSF […], and Csf2^−/− peritoneal macrophages were cultured in culture medium with M-CSF alone. […]

Csf2rb−/− mice [2] = assay: In vivo LXR stimulation study (oral T0901317 in PAP mice); parameters: species or system mouse; settings: oral gavage 10 mg/kg/day, 7 days
Experimental: Bronchoalveolar lavage and alveolar macrophage collection in mice.
RNA isolation and gene expression analysis.
In vivo LXR Stimulation Studies. Mice were administered T0901317 by oral gavage once daily for 7 days at a dose of 10 mg/kg/BW/Day using propylene glycol and tween 80 as a vehicle. On the 7th day alveolar macrophages were collected by bronchoalveolar lavage. Following brief adherence to tissue culture plastic to remove BAL debris, alveolar macrophages were then used for RNA isolation and gene expression analysis by qRT-PCR as described above

[3] = system: alveolar macrophages from PAP patients; assay: Ex vivo human PPARγ & LXR stimulation, mRNA by qRT-PCR; format: cell-based
Experimental: Bronchoalveolar lavage and alveolar macrophage collection in human participants. This study was conducted with the approval of the Cincinnati Children's Hospital Medical Center institutional review board and all participants or their legal guardians gave written informed consent. Human BAL fluid and alveolar macrophages were obtained from BAL using flexible bronchoscopy or from discarded material of PAP patients undergoing therapeutic whole lung lavage. After the fluid was centrifuged at 283 g for 10 minutes, the cellular pellet was re-suspended in the culture medium. Human alveolar macrophages were isolated by adherence to tissue culture plastic. Extracellular debris was removed by gentle washing with PBS.
(§1) RNA isolation and gene expression analysis. Total RNA was isolated using Trizol (Life Technologies) and was converted to cDNA using the Invitrogen Superscript III first strand synthesis kit (Life Technologies) according to the manufacturer's protocol. Standard quantitative RT-PCR (qRT-PCR) was performed as previously described 10 on an Applied Biosystems 7300 Real-Time PCR System (Life Technologies) to measure transcript abundance using TaqMan® oligonucleotide primer sets (all from Life Technologies). Expression of target genes was normalized to the expression of 18s RNA.
Ex vivo human PPARγ & LXR stimulation studies. After purifying alveolar macrophages, fresh media was added to the adherent alveolar macrophages containing human M-CSF (R&D) (25ng/ml) only or M-CSF plus Pioglitazone (Sigma) (10 μM) or T0901317 (Tocris) (1 μM) for 24 hrs. qRT-PCR was performed as described above.

[4] = system: BMD macrophages from PAP mice (Csf2−/−); assay: In vitro surfactant challenge assay after PPARγ/LXR stimulation (esterified cholesterol accumulation); format: cell-based, mouse
Experimental: (§2) In vitro surfactant challenge assay. BMD macrophages or peritoneal macrophages were seeded at 4×10^5 cells per well of a 12 well tissue culture plate and allowed to adhere with fresh media and cytokines overnight. Cells were then challenged for 24 hrs with pulmonary surfactant isolated from a hereditary PAP patient (PAP-S). After the challenge cells were gently washed with PBS to remove exogenous PAP-S and cellular lipids were then extracted and analyzed by the amplex red cholesterol assay.
In vitro mouse PPARγ & LXR stimulation Studies. BMD macrophages were prepared as previously described in the presence of M-CSF (10 ng/ml). On the 7th day macrophages were stimulated for 24 hrs with M-CSF (10 ng/ml), GM-CSF (10 ng/ml), Pioglitazone (10 μm) or T0901317 (1 μm from Tocris). Macrophages were then used for an in vitro surfactant challenge assay or gene expression analysis by qRT-PCR as described above.

[5] = system: patients with insulin resistance; settings: literature ref. 53; cited from earlier work
Csf2rb−/− mice [6] = assay: In vivo PPARγ stimulation study (oral pioglitazone in PAP mice)
From the text: Bronchoalveolar lavage and alveolar macrophage collection in mice. GM-CSF (CSF2) knockout (Csf2^−/−) mice5 and Csf2rb gene-deficient (Csf2rb^−/−)14 were reported previously (referred to mouse PAP). C57B1/6 mice (referred to as wild type or WT mice) were purchased from Charles River. All mice were bred, housed, and studied in the Cincinnati Children's Research Foundation Vivarium using protocols approved by the Institutional Animal Care and Use Committee. Epithelial lining fluid and non-adherent cells were collected from indicated mice by bronchoalveolar lavage (BAL) using five lml aliquots of PBS plus 0.5 mM EDTA4. The 1 ml aliquots were pooled and the recovered volumes recorded. The supernatant was removed and the cellular pellets were re-suspended in the culture media for isolation of alveolar macrophages by adherence to tissue culture plastic.
Cholesterol levels. Total and free cholesterol levels were measured by the amplex red cholesterol assay (Life Technologies) per the manufacturer's protocol. Esterified cholesterol was then calculated by subtracting free cholesterol from the total value.
Turbidity. The turbidity of the fluid was measured as previously described^4,55 Briefly, 250 uls of the BAL were diluted into 750 uls of PBS and the optical density measured at a wavelength of 600 nm and multiplied by the dilution factor.
as §1
In vivo PPARγ stimulation studies. Pioglitazone was incorporated into standard rodent chow at a dose expected to deliver 20 mg/kg BW/Day. BAL turbidity and alveolar macrophage gene expressions were measured as described above. GM-CSF levels and total cholesterol levels in the BAL were measured in the supernatant of fluid after centrifuge at 283 g for 10 minutes at 4° C. by enzyme-linked immunosorbent assay (ELISA) (R&D systems) and Amplex Red Cholesterol assay respectively as described above.

Csf2−/− BMD macrophages = assay: GM-CSF plasticity studies (withdrawal, multi-day stimulation, dose response) with PAP-S challenge; format: cell-based, mouse; settings: for reduction in exposure-related cholesterol ester accumulation: addition of GM-CSF (10 ng/ml) to macrophages cultured without it; for increase in exposure-related cholesterol ester accumulation: withdrawal of GM-CSF
Experimental: as §2
GM-CSF withdrawal. Csf2^−/− BMD macrophages were differentiated and maintained in media containing M-CSF and GM-CSF. After 7 days of differentiation cells were split into 12well tissue culture plates and allowed to adhere overnight in GM-CSF containing media. The following day the media was changed to M-CSF only and cells were challenged with PAP-S for 24hrs immediately or 24, 48, and 72 hours after GM-CSF withdrawal. Cellular lipids were extracted, normalized to total protein, and analyzed. Csf2^−/− BMD macrophages were used to ensure elimination of any potential autologous GM-CSF expression-related stimulation.
Multi-Day GM-CSF stimulation. Csf2^−/− BMD macrophages were generated in media containing M-CSF. On the 7th day cells were stimulated for 0, 24, 48, or 72 hrs with 10 ng/ml of GM-CSF before 24 hr surfactant challenge with PAP-S. Cellular lipids were extracted, normalized to total protein, and analyzed.
GM-CSF dose response. Csf2^−/− BMD macrophages were generated in media containing M-CSF. On the 7th day cells were stimulated by a dose response of GM-CSF (0, 0.1,1,10, and 100 ng/ml) for 24 hrs before surfactant challenge with PAP-S. Cellular lipids were extracted, normalized to total protein, and analyzed.

[7] = pioglitazone 10 μM, 24 hrs, compared to untreated controls (FIG. 5A-5B)
[8] = oral in food, 20 mg/kg/day, six weeks, vs untreated age-matched controls (FIG. 5F-5G)

With `O=S(=O)(c1ccccc1)N(CC(F)(F)F)c1ccc(C(O)(C(F)(F)F)C(F)(F)F)cc1` [T0901317, N-(2,2,2-trifluoroethyl)-N-[4-[2,2,2-trifluoro-1-hydroxy-1-(trifluoromethyl)ethyl]phenyl]-benzenesulfonamide] the “Abcg1 mRNA level” value ([1]; 24 hrs (FIG. 8C)) was “increased”, the “Abca1 mRNA level” value ([1]; 24 hrs (FIG. 8D)) was “increased” and the “Abca1 mRNA in alveolar macrophages” value (Csf2rb−/− mice [2]; vs untreated age-matched controls (FIG. 8F)) was “significantly increased”. For the same compound, the “Abcg1 mRNA in alveolar macrophages” value (Csf2rb−/− mice [2]; vs untreated age-matched controls (FIG. 8G)) was “significantly increased”, the “ABCG1 mRNA” value ([3]; T0901317 1 μM, 24 hrs (FIG. 8A)) was “increase” and the “ABCA1 mRNA” value ([3]; T0901317 1 μM, 24 hrs (FIG. 8B)) was “increase”. The “cholesterol ester accumulation following exposure to PAP-surfactant” value ([4]; T0901317 1 μm 24 hrs, then PAP-S 24 hrs (FIG. 8E)) was “reduced”.

For `CCc1ccc(CCOc2ccc(CC3SC(=O)NC3=O)cc2)nc1` (stereo not shown) [pioglitazone, Pioglitazone], the “risk of stroke or myocardial infarction” value [5] is given as “reduce the risk”, the “ABCA1 mRNA” value [3, 7] is given as “did not alter” and the “ABCG1 mRNA” value [3, 7] is given as “markedly increased”. The “cholesterol ester accumulation following exposure to PAP-surfactant” value ([4]; pioglitazone 10 μm 24 hrs, then PAP-S 24 hrs (FIG. 5E)) was “reduced”, the “Abca1 mRNA in alveolar macrophages” value (Csf2rb−/− mice [6]; [8]) was “significantly increased” and the “Abcg1 mRNA in alveolar macrophages” value (Csf2rb−/− mice [6]; [8]) was “significantly increased”. For the same compound, the BAL turbidity (Csf2rb−/− mice [6]; oral in food, 20 mg/kg/day, six weeks, vs untreated age-matched controls (FIG. 5H)) was “significantly reduced”, the BAL cholesterol level (Csf2rb−/− mice [6]; oral in food, 20 mg/kg/day, six weeks, vs untreated age-matched controls (FIG. 5I)) was “significantly reduced” and the adverse effects (Csf2rb−/− mice [6]; oral pioglitazone in Csf2rb−/− mice (not shown)) was “no apparent adverse effects”. The “severity of PAP lung disease” value (Csf2rb−/− mice [6]; pioglitazone therapy of GM-CSF deficient mice (summary statement)) was “reduced the severity”.

In the case of “GM-CSF: granulocyte/macrophage-colony stimulating factor (R&D Systems)”, the “cholesterol clearance capacity of macrophages” value (Csf2−/− BMD macrophages; GM-CSF 0, 0.1, 1, 10, 100 ng/ml for 24 hrs before PAP-S challenge (FIG. 3N)) is reported as “increased the cholesterol clearance capacity of macrophages in dose-dependent fashion”, the “reduction in exposure-related cholesterol ester accumulation” value (Csf2−/− BMD macrophages; by 24 hours (FIG. 3M)) is reported as 27% and the “reduction in exposure-related cholesterol ester accumulation” value (Csf2−/− BMD macrophages; by 72 hours (FIG. 3M)) is reported as 49%. The “increase in exposure-related cholesterol ester accumulation” value (Csf2−/− BMD macrophages; by 24 hours (FIG. 3L)) was 86% and the “increase in exposure-related cholesterol ester accumulation” value (Csf2−/− BMD macrophages; by 72 hours (FIG. 3L)) was 309%.
